Source: PubChem BioAssay (NCI)
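96-well plates; 48 h exposure; 5 concentrations. Endpoints by linear interpolation between flanking doses. Not reached: highest tested concentration assigned. Abbreviation: GI50, concentration required for 50% inhibition of growth. TGI: total growth inhibition.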

Columns and labels:
Test in all cases: NCI-60 cell line screen, 48 h
[1] = tested on: 786-0 renal
[2] = tested on: BT-549 breast
[3] = tested on: EKVX NSCLC
[4] = tested on: OVCAR-3 ovarian
[5] = tested on: OVCAR-4 ovarian
[6] = tested on: SK-MEL-28 melanoma
[7] = tested on: SK-MEL-5 melanoma
[8] = tested on: U251 CNS
[9] = tested on: MCF7 breast
[10] = tested on: HS 578T breast

Row | SMILES | GI50 [1] [µM] | TGI [1] [µM] | GI50 [2] [µM] | TGI [2] [µM] | GI50 [3] [µM] | TGI [3] [µM] | GI50 [4] [µM] | TGI [4] [µM] | GI50 [5] [µM] | TGI [5] [µM] | GI50 [6] [µM] | TGI [6] [µM] | GI50 [7] [µM] | TGI [7] [µM] | GI50 [8] [µM] | TGI [8] [µM] | TGI [9] [µM] | GI50 [10] [µM] | TGI [10] [µM] | GI50 [9] [µM]
1 | O=c1nc2n(-c3ccc(Cl)cc3)c3ccc([N+](=O)[O-])cc3cc-2c(=O)[nH]1 | 17.9 | 37.1 | 13.6 | 46.2 | 37.2 | 82.5 | 5.57 | 21.6 | 71.5 | > 100 | 24.9 | 61.6 | 18.6 | 41.6 | 8.15 | 88.7 | – | – | – | –
2 | N#CC(C(=O)CCC(=O)C(C#N)c1ccccc1)c1ccccc1 (configuration not stated) | – | > 100 | – | – | – | > 100 | – | > 100 | – | > 100 | – | > 100 | – | > 100 | – | > 100 | – | – | – | –
3 | O=C(CC1(O)C(=O)Nc2c(Cl)ccc(Cl)c21)c1ccc2ccccc2c1 (configuration not stated) | – | 22.4 | – | – | – | 31 | – | 14.3 | – | 5.92 | – | 32.6 | – | 17.7 | – | 61.3 | – | – | – | –
4 | Clc1cc(Cc2cc(Cl)c(Cl)c3c2OCOC3)c2c(c1Cl)COCO2 | – | 62.4 | – | – | – | – | – | 69 | – | 43.9 | – | > 100 | – | > 100 | – | > 100 | – | – | – | –
5 | CN(C(=O)C12C3C4C1C1C4(C(=O)C45C6C7C4C4C5C6C74C)C3C12C)C(C)(C)C (configuration not stated) | – | > 100 | – | – | – | > 100 | – | – | – | – | – | > 100 | – | 81.7 | – | > 100 | – | – | – | –
6 | CC1(c2cccc3ccccc23)OC(=O)c2ccccc21 (configuration not stated) | – | 71.3 | – | – | – | > 100 | – | 58.1 | – | > 100 | – | 75.8 | – | 26.2 | – | 45.7 | – | – | – | –
7 | CCOC(=O)N1CCc2cc(OC)c(OC)c3c2c1cc1cc(OC)c(OC)cc13 | – | > 100 | – | 3.65 | – | > 100 | – | 8.64 | – | > 95.3 | – | > 100 | – | 32.9 | – | 67.1 | 32.8 | – | – | –
8 | O=C(CO)CC(=O)C(=O)Nc1ccccc1 | – | > 100 | – | – | – | > 100 | – | > 100 | – | > 100 | – | > 100 | – | > 100 | – | > 100 | – | – | – | –
9 | Cc1ccc(/C=C2/SC(Nc3nc(-c4csc(NC5=NC(=O)/C(=C\c6ccc(C)cc6)S5)n4)cs3)=NC2=O)cc1 | 7.68 | 25.6 | – | – | 14.9 | > 50 | 3.28 | 33.9 | – | – | 25 | > 50 | 0.0217 | 1.4 | 3.43 | > 50 | > 50 | 21.9 | > 50 | 2.3
10 | CC(=O)[CH-]C(=O)c1ccccc1.CC(=O)[CH-]C(=O)c1ccccc1.[Eu+3].[OH-].[OH3+] | > 100 | > 100 | – | – | > 100 | > 100 | – | – | > 100 | > 100 | > 100 | > 100 | > 100 | > 100 | > 100 | > 100 | – | – | – | –
11 | COc1cc2c3c(n(CCCN)c(=O)c2cc1OC)-c1cc2c(cc1/C3=C\CCN)OCO2 | 2.05 | 9.34 | – | – | 5.07 | 15.9 | – | > 23.5 | – | – | 2.15 | 9.67 | 4.55 | 11.8 | 1.33 | 11 | – | 11 | 55.7 | 0.692
12 | O=C1NC(=O)C2C(=O)NC(=O)C1C2(c1ccccc1)c1cc[nH]c1 (configuration not stated) | – | > 100 | – | – | – | > 100 | – | > 100 | – | > 100 | – | > 100 | – | > 100 | – | – | – | – | – | –
13 | CCC1(c2c(F)c(F)c(N)c(F)c2F)CCC(=O)NC1=O (configuration not stated) | – | > 100 | – | – | – | > 100 | – | > 100 | – | > 100 | – | > 100 | – | > 100 | – | > 100 | – | – | – | –
14 | CC(=O)OC[C@]1(O)CC[C@@]23CC1C[C@@H]2CCC1C(C)(C)CCC[C@@]13C (some centres not stated) | – | 31.6 | – | – | – | – | – | 30.8 | – | 30 | – | 28.1 | – | 28.2 | – | 27.1 | – | – | – | –
15 | CCc1c(C#N)c(S[C@@H](C(N)=O)c2ccccc2)nc(N(C)C)c1C#N | 21.1 | > 100 | – | – | 7.93 | > 100 | > 100 | > 100 | – | – | – | – | – | – | 11 | 42.1 | – | – | – | –
16 | CCOc1ccccc1NC(=O)CC1SC(=Nc2ccc([N+](=O)[O-])cc2)NC1=O (configuration not stated) | – | 33.5 | – | – | – | 72.3 | – | 31.6 | – | 29.8 | – | 70 | – | 30 | – | 28 | – | – | – | –
17 | Cc1cc2nc(CCC(=O)O)c(=O)[nH]c2cc1C | – | > 100 | – | – | – | > 100 | – | > 100 | – | > 100 | – | > 100 | – | > 100 | – | > 100 | – | – | – | –
